Data on 2 compounds can be found in patent US20100256199A1, “Crystalline form of an Antimalarial Compound” (Glaxo Group Limited, priority 2007, published 2010).

Holding throughout (format): physicochemical
Data set [1] can be described thus: Stability of the polymorphic forms at ambient temperature.
A short description of data set [2]: Competitive ripening experiments between Form 1 and Form 2 (relative thermodynamic stability). Here is the method:
Forms 1 and 2 of the compound of Formula (I) are both stable at ambient temperature. Competitive ripening experiments between Form 1 and 2 of the compound of Formula (I) were conducted in i) a mixture of acetone and 1-propanol at 23° C.; ii) in acetone at 10° C. and iii) in acetone at 50° C.

Data set [3] can be described thus: Hygroscopicity of the crystalline form.

On to `Cc1[nH]c(CO)c(-c2ccc(Oc3ccc(OC(F)(F)F)cc3)cc2)c(=O)c1Cl` [Form 1, 3-chloro-6-(hydroxymethyl)-2-methyl-5-[4-({4-[(trifluoromethyl)oxy]phenyl}oxy)phenyl]-4(1H)-pyridinone], for which, in data set [1], the “Stability at ambient temperature” value is listed as “stable”. The “Polymorphic form conversion in competitive ripening experiments” value in data set [2] (i) mixture of acetone and 1-propanol at 23° C.; ii) acetone at 10° C.; iii) acetone at 50° C., same outcome in each) is “converted to Form 2”.
Take `Cc1[nH]c(CO)c(-c2ccc(Oc3ccc(OC(F)(F)F)cc3)cc2)c(=O)c1Cl` [Form 2, 3-chloro-6-(hydroxymethyl)-2-methyl-5-[4-({4-[(trifluoromethyl)oxy]phenyl}oxy)phenyl]-4(1H)-pyridinone]: the Relative thermodynamic stability result in data set [2] (at ambient temperatures, for example at 23° C.) is “thermodynamically more stable than Form 1”; in data set [2] (between 10° C. and 50° C.) it was “thermodynamically more stable than Form 1”. In data set [3], the Hygroscopic nature result was “non-hygroscopic”.
